According to patent publication US8685992B2, “Histone deacetylase inhibitors based simultaneously on trisubstituted 1H-pyrroles and aromatic and heteroaromatic spacers” (Universidad del País Vasco, priority 2009, dated 2014):
Each block holds one molecule with its values, some of them ahead of it.

Key:
KB = assay: Cancer cell growth inhibition, KB; format: cell-based, human; details: Oral Cancer, 72 h treatment
Experimental: (§1) Cell culture-based assays were used to evaluate the ability of compounds of the invention to inhibit cancer cell growth inhibition.
(§2) Cells were obtained from the American Type Culture Collection (ATCC). Cells were cultured at 37° C. with 5% CO2 in the appropriate growth medium (see table below), and harvested respectively during the logarithmic growth period and counted with hemocytometer. The cell viability was over 98% by trypan blue exclusion. Cell concentrations were adjusted between 5×10^4 and 2×10^5 cells/ml with respective medium.
(§3) Stock solutions of test compounds and positive drugs Doxorubicin (Zhejiang, Haizheng, China), Paclitaxel (Beijing, Xiehe, China), Vincristin (Shenzhen Wanle, China), 5-FU (Tianjin jinyaoanjisuan, China), Irinotecan (Jiangsu Hengrui, China) and Cisplatin Nanjing zhiyao, China) were prepared in dimethyl sulphoxide (DMSO) or PBS at 20 mM.
(§4) All treatments were performed in triplicate. 10 μl drug solution was added to each well and incubated for 72 hours. At the end of the incubation, 20 μl of the freshly prepared MTS/PMS mixture solution was added to each well and incubated for 4 hours at 37° C. in a humidified, 5% CO2 atmosphere. Absorbance was read at 490 nm using SpectraMAX Plus microplate spectrophotometer. […] In order to calculate IC50, a dose-responsive curve was fitted using nonlinear regression model with a sigmoidal dose response.

RPMI-8226 = assay: Cancer cell growth inhibition, RPMI-8226; format: cell-based, human; details: RPMI-8226, Orthotopic Multiple Myeloma, 72 h treatment
Experimental: as §1, §2, §3, §4

Hep3B = assay: Cancer cell growth inhibition, Hep3B; format: cell-based, human; details: Liver Cancer, 72 h treatment
Experimental: as §1, §2, §3, §4

NCI-N87 = assay: Cancer cell growth inhibition, NCI-N87; format: cell-based, human; details: NCI-N87, Gastric Cancer, 72 h treatment
Experimental: as §1, §2, §3, §4

786-O = assay: Cancer cell growth inhibition, 786-O; format: cell-based, human; details: Kindney Cancer, 72 h treatment
Experimental: as §1, §2, §3, §4

PC-3 = assay: Cancer cell growth inhibition, PC-3; format: cell-based, human; details: PC-3, Prostate Cancer, 72 h treatment
Experimental: as §1, §2, §3, §4

SK-OV-3 = assay: Cancer cell growth inhibition, SK-OV-3; format: cell-based, human; details: SK-OV-3, Ovarian Cancer, 72 h treatment
Experimental: as §1, §2, §3, §4

HT-29 = assay: Cancer cell growth inhibition, HT-29; format: cell-based, human; details: HT-29, Colorectal Cancer, 72 h treatment
Experimental: as §1, §2, §3, §4

MCF-7 = assay: Cancer cell growth inhibition, MCF-7; format: cell-based, human; details: MCF-7, Breast Cancer, 72 h treatment
Experimental: as §1, §2, §3, §4

MCG803 = assay: Cancer cell growth inhibition, MCG803; format: cell-based, human; details: MCG803, Gastric Cancer, 72 h treatment
Experimental: as §1, §2, §3, §4

U87MG = assay: Cancer cell growth inhibition, U87MG; format: cell-based, human; details: Glioblastoma, 72 h treatment
Experimental: as §1, §2, §3, §4

SK-MES-1 = assay: Cancer cell growth inhibition, SK-MES-1; format: cell-based, human; details: SK-MES-1, Lung Cancer, 72 h treatment
Experimental: as §1, §2, §3, §4

SW480 = assay: Cancer cell growth inhibition, SW480; format: cell-based, human; details: SW480, Colorectal Cancer, 72 h treatment
Experimental: as §1, §2, §3, §4

A375 = assay: Cancer cell growth inhibition, A375; format: cell-based, human; details: A375, Melanoma, 72 h treatment
Experimental: as §1, §2, §3, §4

NCI-H460 = assay: Cancer cell growth inhibition, NCI-H460; format: cell-based, human; details: NCI-H460, Lung Cancer, 72 h treatment
Experimental: as §1, §2, §3, §4

DLD-1 = assay: Cancer cell growth inhibition, DLD-1; format: cell-based, human; details: DLD-1, Colorectal Cancer, 72 h treatment
Experimental: as §1, §2, §3, §4

K562 = assay: Cancer cell growth inhibition, K562; format: cell-based, human; details: K562, CML, 72 h treatment
Experimental: as §1
as §2, with “The cell viability was over 98% by trypan blue exclusion.” left out
as §3, §4

SW620 = assay: Cancer cell growth inhibition, SW620; format: cell-based, human; details: SW620, Colorectal Cancer, 72 h treatment
Experimental: as §1, §2, §3, §4

Bx-PC-3 = assay: Cancer cell growth inhibition, Bx-PC-3; format: cell-based, human; details: Bx-PC-3, Pancreatic Cancer, 72 h treatment
Experimental: as §1, §2, §3, §4

MDA-MB-231 = assay: Cancer cell growth inhibition, MDA-MB-231; format: cell-based, human; details: MDA-MB-231, Breast Cancer, 72 h treatment
Experimental: as §1, §2, §3, §4

Calu-6 = assay: Cancer cell growth inhibition, Calu-6; format: cell-based, human; details: Calu-6, Lung Cancer, 72 h treatment
Experimental: as §1, §2, §3, §4

SK-MEL-5 = assay: Cancer cell growth inhibition, SK-MEL-5; format: cell-based, human; details: SK-MEL-5, Melanoma, 72 h treatment
Experimental: as §1, §2, §3, §4

A549 = assay: Cancer cell growth inhibition, A549; format: cell-based, human; details: A549, Lung Cancer, 72 h treatment
Experimental: as §1, §2, §3, §4

DU145 = assay: Cancer cell growth inhibition, DU145; format: cell-based, human; details: DU145, Prostate Cancer, 72 h treatment
Experimental: as §1, §2, §3, §4

LoVo = assay: Cancer cell growth inhibition, LoVo; format: cell-based, human; details: Colorectal Cancer, 72 h treatment
Experimental: as §1, §2, §3, §4

LNCaP = assay: Cancer cell growth inhibition, LNCaP; format: cell-based, human; details: Prostate Cancer, 72 h treatment
Experimental: as §1, §2, §3, §4

NCI-H226 = assay: Cancer cell growth inhibition, NCI-H226; format: cell-based, human; details: NCI-H226, Lung Cancer, 72 h treatment
Experimental: as §1, §2, §3, §4

CNE2 = assay: Cancer cell growth inhibition, CNE2; format: cell-based, human; details: CNE2, Nasopharyngeal Cancer, 72 h treatment
Experimental: as §1, §2, §3, §4

SK-BR-3 = assay: Cancer cell growth inhibition, SK-BR-3; format: cell-based, human; details: SK-BR-3, Breast Cancer, 72 h treatment
Experimental: as §1, §2, §3, §4

PANC-1 = assay: Cancer cell growth inhibition, PANC-1; format: cell-based, human; details: PANC-1, Pancreatic Cancer, 72 h treatment
Experimental: as §1, §2, §3, §4

OVCAR3 = assay: Cancer cell growth inhibition, OVCAR3; format: cell-based, human; details: OVCAR3, Ovarian Cancer, 72 h treatment
Experimental: as §1, §2, §3, §4

BGC823 = assay: Cancer cell growth inhibition, BGC823; format: cell-based, human; details: BGC823, Gastric Cancer, 72 h treatment
Experimental: as §1, §2, §3, §4

Human HDAC9 = Human HDAC9 (Homo sapiens (Human), UniProt Q9UKV0); assay: HDAC9 fluorogenic peptide deacetylation assay; format: biochemical; details: human HDAC9, 50 μM substrate, 30° C., 2 h; read-out: IC50 (nM) of enzyme activity HDAC9
Human HDAC3/NcoR2 = Human HDAC3/NcoR2 (Homo sapiens (Human), UniProt O15379); assay: HDAC3 fluorogenic peptide deacetylation assay; format: biochemical; details: human HDAC3/NcoR2, 50 μM substrate, 30° C., 2 h; read-out: IC50 (nM) of enzyme activity HDAC3
Human HDAC5 = Human HDAC5 (Homo sapiens (Human), UniProt Q9UQL6); assay: HDAC5 fluorogenic peptide deacetylation assay; format: biochemical; details: human HDAC5, 50 μM substrate, 30° C., 2 h; read-out: IC50 (nM) of enzyme activity HDAC5
Human HDAC7 = Human HDAC7 (Homo sapiens (Human), UniProt Q8WUI4); assay: HDAC7 fluorogenic peptide deacetylation assay; format: biochemical; details: human HDAC7, 50 μM substrate, 30° C., 2 h; read-out: IC50 (nM) of enzyme activity HDAC7
Human HDAC11 = Human HDAC11 (Homo sapiens (Human), UniProt Q96DB2); assay: HDAC11 fluorogenic peptide deacetylation assay; format: biochemical; details: human HDAC11, 50 μM substrate, 30° C., 2 h; read-out: IC50 (nM) of enzyme activity HDAC11
Human HDAC10 = Human HDAC10 (Homo sapiens (Human), UniProt Q969S8); assay: HDAC10 fluorogenic peptide deacetylation assay; format: biochemical; details: human HDAC10, 50 μM substrate, 30° C., 2 h; read-out: IC50 (nM) of enzyme activity HDAC10
Human HDAC1 = Human HDAC1 (Homo sapiens (Human), UniProt Q13547); assay: HDAC1 fluorogenic peptide deacetylation assay; format: biochemical; details: human HDAC1, 50 μM substrate, 30° C., 2 h; read-out: IC50 (nM) of enzyme activity HDAC1
Human HDAC2 = Human HDAC2 (Homo sapiens (Human), UniProt Q92769); assay: HDAC2 fluorogenic peptide deacetylation assay; format: biochemical; details: human HDAC2, 50 μM substrate, 30° C., 2 h; read-out: IC50 (nM) of enzyme activity HDAC2
Human HDAC6 = Human HDAC6 (Homo sapiens (Human), UniProt Q9UBN7); assay: HDAC6 fluorogenic peptide deacetylation assay; format: biochemical; details: human HDAC6, 50 μM substrate, 30° C., 2 h; read-out: IC50 (nM) of enzyme activity HDAC6
Human HDAC8 = Human HDAC8 (Homo sapiens (Human), UniProt Q9BY41); assay: HDAC8 fluorogenic peptide deacetylation assay; format: biochemical; details: human HDAC8, 50 μM substrate, 30° C., 2 h; read-out: IC50 (nM) of enzyme activity HDAC8
Human HDAC4 = Human HDAC4 (Homo sapiens (Human), UniProt P56524); assay: HDAC4 fluorogenic peptide deacetylation assay; format: biochemical; details: human HDAC4, 50 μM substrate, 30° C., 2 h; read-out: IC50 (nM) of enzyme activity HDAC4
[1] = tested on: Nuclear Extract from HeLa Cells; assay: HeLa Nuclear Extract HDAC assay; format: biochemical, human; details: 50 μM substrate, 30° C., 2 h, read-out: IC50 (nM) of enzyme activity HeLa

Human HDAC1, sequence (Q13547 whole entry): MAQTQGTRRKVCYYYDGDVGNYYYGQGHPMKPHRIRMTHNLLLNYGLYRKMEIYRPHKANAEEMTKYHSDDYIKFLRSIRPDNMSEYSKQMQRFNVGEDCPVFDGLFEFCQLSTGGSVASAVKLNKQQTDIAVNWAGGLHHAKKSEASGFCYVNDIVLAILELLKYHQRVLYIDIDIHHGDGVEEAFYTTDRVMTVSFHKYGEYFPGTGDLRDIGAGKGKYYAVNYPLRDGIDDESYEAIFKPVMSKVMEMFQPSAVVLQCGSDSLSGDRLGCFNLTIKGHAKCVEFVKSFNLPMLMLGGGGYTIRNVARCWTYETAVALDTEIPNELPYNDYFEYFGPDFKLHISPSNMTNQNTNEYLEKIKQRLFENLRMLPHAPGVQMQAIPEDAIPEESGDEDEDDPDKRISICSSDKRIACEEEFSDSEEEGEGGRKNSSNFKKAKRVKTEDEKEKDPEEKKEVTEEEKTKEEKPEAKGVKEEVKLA
Human HDAC5, sequence (Q9UQL6 other isoform, or with tags, fused parts or gaps): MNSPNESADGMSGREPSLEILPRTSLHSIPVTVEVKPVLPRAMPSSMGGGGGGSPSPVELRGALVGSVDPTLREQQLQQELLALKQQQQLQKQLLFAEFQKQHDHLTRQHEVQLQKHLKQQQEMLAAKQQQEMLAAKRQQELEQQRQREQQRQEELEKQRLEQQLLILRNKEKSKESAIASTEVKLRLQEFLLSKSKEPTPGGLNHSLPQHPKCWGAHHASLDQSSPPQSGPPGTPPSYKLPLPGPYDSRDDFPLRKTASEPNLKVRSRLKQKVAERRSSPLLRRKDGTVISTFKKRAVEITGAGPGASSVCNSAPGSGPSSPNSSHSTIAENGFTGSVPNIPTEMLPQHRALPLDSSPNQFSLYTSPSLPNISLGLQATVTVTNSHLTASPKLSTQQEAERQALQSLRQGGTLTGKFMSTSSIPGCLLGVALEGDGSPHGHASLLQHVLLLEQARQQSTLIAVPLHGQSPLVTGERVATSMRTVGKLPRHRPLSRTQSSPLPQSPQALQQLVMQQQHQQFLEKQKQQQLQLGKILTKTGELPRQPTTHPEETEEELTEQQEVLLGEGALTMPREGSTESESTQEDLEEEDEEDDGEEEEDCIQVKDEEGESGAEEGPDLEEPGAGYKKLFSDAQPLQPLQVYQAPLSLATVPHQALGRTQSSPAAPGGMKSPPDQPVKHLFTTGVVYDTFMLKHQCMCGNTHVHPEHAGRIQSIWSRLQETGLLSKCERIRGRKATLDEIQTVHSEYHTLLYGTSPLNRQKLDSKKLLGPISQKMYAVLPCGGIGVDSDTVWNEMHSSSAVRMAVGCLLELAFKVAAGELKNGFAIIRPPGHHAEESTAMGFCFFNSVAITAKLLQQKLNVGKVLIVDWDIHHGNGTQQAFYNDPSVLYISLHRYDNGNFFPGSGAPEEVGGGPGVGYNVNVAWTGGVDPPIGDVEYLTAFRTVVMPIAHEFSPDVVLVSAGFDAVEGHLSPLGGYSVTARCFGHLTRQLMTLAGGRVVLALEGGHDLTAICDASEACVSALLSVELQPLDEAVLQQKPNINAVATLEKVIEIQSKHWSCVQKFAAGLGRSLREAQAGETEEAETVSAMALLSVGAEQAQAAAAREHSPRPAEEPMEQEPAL
Human HDAC10, sequence (Q969S8 1-631): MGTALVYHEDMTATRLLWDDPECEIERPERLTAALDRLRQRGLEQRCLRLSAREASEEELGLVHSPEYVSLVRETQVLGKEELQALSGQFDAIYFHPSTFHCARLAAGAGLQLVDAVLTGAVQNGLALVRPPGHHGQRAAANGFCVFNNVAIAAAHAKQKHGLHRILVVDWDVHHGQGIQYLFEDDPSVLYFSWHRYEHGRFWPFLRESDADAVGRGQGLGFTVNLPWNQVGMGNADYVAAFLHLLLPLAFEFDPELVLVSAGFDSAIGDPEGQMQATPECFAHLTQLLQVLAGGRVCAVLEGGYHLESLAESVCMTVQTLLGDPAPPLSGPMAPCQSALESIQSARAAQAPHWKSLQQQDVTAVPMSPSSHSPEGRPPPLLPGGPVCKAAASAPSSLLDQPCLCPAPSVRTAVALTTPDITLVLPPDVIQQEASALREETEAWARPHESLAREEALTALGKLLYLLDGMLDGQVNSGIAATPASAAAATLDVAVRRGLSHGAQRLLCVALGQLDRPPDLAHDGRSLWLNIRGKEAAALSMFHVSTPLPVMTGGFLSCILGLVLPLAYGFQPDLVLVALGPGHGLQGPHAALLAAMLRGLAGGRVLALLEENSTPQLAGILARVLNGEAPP
Human HDAC6, sequence (Q9UBN7 whole entry): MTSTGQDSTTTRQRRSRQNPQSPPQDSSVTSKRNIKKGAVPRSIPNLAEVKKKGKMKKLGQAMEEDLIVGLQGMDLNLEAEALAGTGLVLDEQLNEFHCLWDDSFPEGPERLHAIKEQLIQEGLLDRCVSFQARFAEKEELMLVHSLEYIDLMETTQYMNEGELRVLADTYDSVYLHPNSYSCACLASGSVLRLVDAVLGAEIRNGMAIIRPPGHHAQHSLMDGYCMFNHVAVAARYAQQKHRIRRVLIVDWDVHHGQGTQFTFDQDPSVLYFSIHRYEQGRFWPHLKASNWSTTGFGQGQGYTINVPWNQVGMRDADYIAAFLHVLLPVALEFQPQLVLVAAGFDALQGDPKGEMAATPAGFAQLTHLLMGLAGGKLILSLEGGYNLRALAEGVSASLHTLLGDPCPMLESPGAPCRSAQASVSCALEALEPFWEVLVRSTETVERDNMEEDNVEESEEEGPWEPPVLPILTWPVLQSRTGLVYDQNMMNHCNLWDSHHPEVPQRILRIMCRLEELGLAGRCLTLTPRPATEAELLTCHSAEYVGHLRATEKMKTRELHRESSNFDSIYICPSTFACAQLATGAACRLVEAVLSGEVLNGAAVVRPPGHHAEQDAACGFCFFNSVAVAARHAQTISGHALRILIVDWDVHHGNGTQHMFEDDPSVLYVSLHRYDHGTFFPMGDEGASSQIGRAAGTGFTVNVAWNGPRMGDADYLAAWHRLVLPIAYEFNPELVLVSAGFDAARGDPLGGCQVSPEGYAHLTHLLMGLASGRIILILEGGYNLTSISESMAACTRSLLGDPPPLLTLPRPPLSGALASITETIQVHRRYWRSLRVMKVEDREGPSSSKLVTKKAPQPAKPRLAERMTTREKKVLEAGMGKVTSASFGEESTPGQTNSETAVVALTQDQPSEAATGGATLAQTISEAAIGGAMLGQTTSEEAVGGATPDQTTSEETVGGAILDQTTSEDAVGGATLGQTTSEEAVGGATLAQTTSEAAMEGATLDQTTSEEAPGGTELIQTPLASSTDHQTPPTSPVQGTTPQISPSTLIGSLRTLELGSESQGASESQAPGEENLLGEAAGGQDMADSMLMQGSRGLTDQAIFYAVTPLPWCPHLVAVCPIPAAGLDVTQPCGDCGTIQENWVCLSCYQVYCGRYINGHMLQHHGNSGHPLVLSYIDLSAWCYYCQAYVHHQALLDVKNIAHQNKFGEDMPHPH
Human HDAC8, sequence (Q9BY41 whole entry): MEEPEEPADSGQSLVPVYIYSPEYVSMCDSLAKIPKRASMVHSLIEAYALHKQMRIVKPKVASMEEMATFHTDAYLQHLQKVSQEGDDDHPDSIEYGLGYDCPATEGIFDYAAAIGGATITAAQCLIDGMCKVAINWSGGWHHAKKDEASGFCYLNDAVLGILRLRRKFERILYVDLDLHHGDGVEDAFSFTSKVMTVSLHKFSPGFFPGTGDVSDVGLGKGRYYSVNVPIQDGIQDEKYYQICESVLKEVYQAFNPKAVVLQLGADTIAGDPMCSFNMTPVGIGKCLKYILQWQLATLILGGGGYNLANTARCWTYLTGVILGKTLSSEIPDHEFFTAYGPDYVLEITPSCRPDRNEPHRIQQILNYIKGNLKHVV
Human HDAC7, sequence (Q8WUI4 479-952 limits assumed): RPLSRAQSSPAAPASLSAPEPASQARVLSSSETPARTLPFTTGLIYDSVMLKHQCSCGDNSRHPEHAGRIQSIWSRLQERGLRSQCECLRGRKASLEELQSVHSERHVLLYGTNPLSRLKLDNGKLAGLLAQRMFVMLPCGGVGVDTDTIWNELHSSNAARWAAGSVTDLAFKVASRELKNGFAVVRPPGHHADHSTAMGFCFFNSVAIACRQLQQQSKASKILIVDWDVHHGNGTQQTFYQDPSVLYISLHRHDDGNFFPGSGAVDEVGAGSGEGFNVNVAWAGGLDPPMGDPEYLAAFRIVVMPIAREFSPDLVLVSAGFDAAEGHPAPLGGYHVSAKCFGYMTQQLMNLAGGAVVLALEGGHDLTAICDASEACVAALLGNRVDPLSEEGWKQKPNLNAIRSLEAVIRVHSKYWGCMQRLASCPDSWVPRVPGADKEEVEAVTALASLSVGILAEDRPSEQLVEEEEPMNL
Human HDAC3/NcoR2, sequence (O15379 whole entry): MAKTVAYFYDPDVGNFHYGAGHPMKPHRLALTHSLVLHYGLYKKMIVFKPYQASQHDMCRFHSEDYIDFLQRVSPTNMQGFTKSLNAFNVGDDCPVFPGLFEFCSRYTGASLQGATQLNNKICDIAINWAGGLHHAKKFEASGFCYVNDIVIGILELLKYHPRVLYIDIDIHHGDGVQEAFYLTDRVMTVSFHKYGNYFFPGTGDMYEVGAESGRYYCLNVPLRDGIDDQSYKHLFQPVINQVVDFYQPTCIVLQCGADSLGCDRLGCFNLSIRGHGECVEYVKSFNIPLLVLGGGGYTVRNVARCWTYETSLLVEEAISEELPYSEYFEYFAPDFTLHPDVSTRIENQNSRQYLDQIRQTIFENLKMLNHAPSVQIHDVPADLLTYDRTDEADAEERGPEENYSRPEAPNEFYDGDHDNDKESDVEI
Human HDAC3/NcoR2, sequence (Q9Y618 395-489 partner): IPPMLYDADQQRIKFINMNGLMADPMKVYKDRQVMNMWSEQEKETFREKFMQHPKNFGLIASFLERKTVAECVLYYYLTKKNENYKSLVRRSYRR

Structure (SMILES): N.N.[Cl][Pt][Cl] [Cisplatin, reference compound]
IC50 (KB): 3.97 µM
IC50 (RPMI-8226): 1060 nM
IC50 (Hep3B): 3.96 µM
IC50 (NCI-N87): 8.24 µM
IC50 (786-O): 4.32 µM
IC50 (PC-3): 11.5 µM
IC50 (SK-OV-3): 4.42 µM
IC50 (HT-29): 14.9 µM
IC50 (MCF-7): 7.75 µM
IC50 (MCG803): 11.4 µM
IC50 (U87MG): 7.61 µM
IC50 (SK-MES-1): 5.12 µM
IC50 (SW480): 10.8 µM
IC50 (A375): 6.55 µM
IC50 (NCI-H460): 6.93 µM
IC50 (DLD-1): 18.3 µM
IC50 (K562): 13.2 µM
IC50 (SW620): 84.3 µM
IC50 (Bx-PC-3): 6.12 µM
IC50 (MDA-MB-231): 99.8 µM
IC50 (Calu-6): 1610 nM
IC50 (SK-MEL-5): 2870 nM
IC50 (A549): 28.4 µM
IC50 (DU145): 4.01 µM
IC50 (LoVo): 4.65 µM
IC50 (LNCaP): 8.92 µM
IC50 (NCI-H226): 9.5 µM
IC50 (CNE2): 11.8 µM
IC50 (SK-BR-3): 1740 nM
IC50 (PANC-1): 24.8 µM
IC50 (OVCAR3): 11.7 µM
IC50 (BGC823): 1290 nM

IC50 (Human HDAC9): > 5000 nM
IC50 (Human HDAC3/NcoR2): 5830 nM
IC50 (Human HDAC5): 8640 nM
IC50 (Human HDAC7): > 5000 nM
IC50 (Human HDAC11): 5660 nM
IC50 (Human HDAC10): 8550 nM
IC50 (Human HDAC1): 332 nM
IC50 (Human HDAC2): 1840 nM
IC50 (Human HDAC6): 2890 nM
IC50 (Human HDAC8): > 5000 nM
IC50 (Human HDAC4): > 5000 nM
IC50 [1]: 1080 nM
Structure (SMILES): Nc1ccccc1NC(=O)c1ccc(CNC(=O)c2[nH]c(-c3ccc(O)cc3)cc2-c2ccoc2)cc1 [Example 37, N-(4-{[(2-aminophenyl)amino)carbonyl]benzyl}-3-(3-furyl)-5-(4-hydroxyphenyl)-1H-pyrrole-2-carboxamide]
